The values below come from US12109197B2, “Combinations of β-lactam compounds and probenecid and uses thereof” (Iterum Therapeutics International Limited, priority 2018, dated 2024).

Like-named read-outs stand apart in the source and are kept apart here.

How the values of data set [1] were obtained:
Subjects were to be dosed twice a day (every 12 hours) for 6 days and on Day 7 they were to be dosed once. All treatment groups could be run in parallel or sequentially. Subjects were allocated based on the randomization list. Randomization numbers were assigned sequentially as subjects entered into groups on the basis of their order of entry into the study. Subjects who withdrew for reasons unrelated to safety may have been replaced. Blood samples were obtained at prespecified intervals in order to characterize pharmacokinetics.

The next data set relates to Porphyromonas gingivalis. The conditions noted are these: Ednie and Appelbaum 2009; cited from earlier work.
Data set [2] can be described thus: Multiple-dose study of sulopenem delivered intravenously: plasma pharmacokinetics. It counts as in vivo, human. The conditions noted are these: for AUC(0-inf) / AUC(0-t) / Cmax / half-life / Tmax / CL renal: human, plasma, iv; for Tmax: median [range]; for Rac: accumulation ratio. The protocol: The pharmacokinetics of sulopenem delivered intravenously were studied in a randomized, investigator-blind, subject-blind, sponsor-open, placebo-controlled, multiple-dose study of sulopenem. There were 5 cohorts dosed. Each subject was dosed for up to 14 days. Each cohort consisted of 10 subjects.

For data set [3] the following is noted: Dacey and Sande 1974; cited from earlier work.
Setting [4] is: 800 mg, intravenous 800 mg (3 h BID), Day 1.
[5] abbreviates: 800 mg, intravenous 800 mg (3 h BID), Day 14.
[6] abbreviates: 1200 mg, intravenous 1200 mg (1 h BID), Day 1.
[7] abbreviates: 1200 mg, intravenous 1200 mg (1 h BID), Day 14.
The mark [8] stands for this setting: 1200 mg, intravenous 1200 mg ([…] BID), Day 1.
[9] abbreviates: 1200 mg, intravenous 1200 mg ([…] BID), Day 14.
[10] abbreviates: 1600 mg, intravenous 1600 mg (1.5 h BID), Day 1.
Where [11] appears, read: 1600 mg, intravenous 1600 mg (1.5 h BID), Day 14.
The mark [12] stands for this setting: 2000 mg, intravenous 2000 mg (1.5 h BID), Day 1.

For `CCOC(C)(C)C(=O)OCOC(=O)C1=C(S[C@H]2CC[S@@+]([O-])C2)S[C@@H]2[C@@H]([C@@H](C)O)C(=O)N12` [Compound III-1b], the “AUC of sulopenem on Day 7 compared with Day 1” value is recorded as “lower than that on Day 1” in data set [1] (administered alone through the oral route) and “increased on Day 7 beyond that seen on Day 1” in data set [1] (co-administered with probenecid).

With `C[C@@H](O)[C@H]1C(=O)N2C(C(=O)O)=C(S[C@H]3CC[S@@+]([O-])C3)S[C@H]12` [sulopenem], the “activity against Porphyromonas gingivalis” value in the data set with Porphyromonas gingivalis was “active”. Besides, the AUC(0-inf) worked out at 22400 ng·h/mL in data set [2] (setting [4]); 26500 ng·h/mL in data set [2] (setting [5]); 42300 ng·h/mL in data set [2] (setting [6]); 41400 ng·h/mL in data set [2] (setting [7]); 41900 ng·h/mL in data set [2] (setting [8]); 34600 ng·h/mL in data set [2] (setting [9]). The results for the total exposure AUC(0-inf) in data set [2] (setting [10]), in data set [2] (setting [11]) and in data set [2] (setting [12]) were 67300 ng·h/mL, 54900 ng·h/mL and 90300 ng·h/mL, respectively. The AUC(0-t) in data set [2] (setting [4]) was 22300 ng·h/mL; in data set [2] (setting [5]) it was 26400 ng·h/mL; in data set [2] (setting [6]), 42200 ng·h/mL; in data set [2] (setting [7]), 41300 ng·h/mL; in data set [2] (setting [8]), 41800 ng·h/mL; in data set [2] (setting [9]), 34500 ng·h/mL. The AUC(0-t) worked out at 67100 ng·h/mL in data set [2] (setting [10]), 54700 ng·h/mL in data set [2] (setting [11]) and 90100 ng·h/mL in data set [2] (setting [12]). The Cmax in data set [2] (setting [4]) is 7270 ng/mL; in data set [2] (setting [5]) it was 8970 ng/mL; in data set [2] (setting [6]), 32500 ng/mL; in data set [2] (setting [7]), 30700 ng/mL; in data set [2] (setting [8]), 16600 ng/mL; in data set [2] (setting [9]) it was 13500 ng/mL. In addition, the maximum concentration (Cmax) in data set [2] (setting [10]) was 40100 ng/mL; in data set [2] (setting [11]), 31800 ng/mL; in data set [2] (setting [12]), 51500 ng/mL. Besides, the half-life was 0.825 h in data set [2] (setting [4]); 0.889 h in data set [2] (setting [5]); 1.04 h in data set [2] (setting [6]); 1.05 h in data set [2] (setting [7]); 1.12 h in data set [2] (setting [8]); 1.01 h in data set [2] (setting [9]). Also, the half-life in data set [2] (setting [10]) was determined as 1.04 h; in data set [2] (setting [11]), 1.2 h; in data set [2] (setting [12]), 1.12 h. The time of peak concentration (Tmax) stood at 2 h in data set [2] (setting [4]); 2 h in data set [2] (setting [5]); 1 h in data set [2] (setting [6]); 1 h in data set [2] (setting [7]); 2.25 h in data set [2] (setting [8]); 2 h in data set [2] (setting [9]). Further, the time of peak concentration (Tmax) amounted to 1.5 h in data set [2] (setting [10]), 1.25 h in data set [2] (setting [11]) and 1.5 h in data set [2] (setting [12]). The CL renal in data set [2] (setting [5]) is 257 mL/min; in data set [2] (setting [7]) it was 245 mL/min; in data set [2] (setting [9]) it was 313 mL/min; in data set [2] (setting [11]) it was 327 mL/min. In addition, the Rac is recorded as 1.15 (29) in data set [2] (intravenous 800 mg (3 h BID), Day 14); 0.928 (17) in data set [2] (intravenous 1200 mg (1 h BID), Day 14); 0.841 (9) in data set [2] (intravenous 1200 mg ([…] BID), Day 14); 0.791 (9) in data set [2] (intravenous 1600 mg (1.5 h BID), Day 14).

With `CCCN(CCC)S(=O)(=O)c1ccc(C(=O)O)cc1` [probenecid], the “effect on concentrations of β-lactam compounds in the cerebrospinal fluid” value in data set [3] is on record as “increase the concentrations of β-lactam compounds in the cerebrospinal fluid”.

Usually AUC(0-inf) stands for the area under the concentration-time curve extrapolated to infinity. The low end stands for less exposure, the high end for more exposure. The AUC(0-t) is exposure summed from dosing to a finite time, without extrapolation to infinity. One may read the Cmax as the highest concentration seen after dosing. By half-life is commonly meant the time needed for the level to fall by half in the phase considered. As usually defined, the Tmax is the time at which the peak concentration occurs.
